Laboratory results taken from patent publication US8791104B2, “1,4-benzodiazepine-2,5-diones with therapeutic properties” (The Regents of the University of Michigan, priority 2005, dated 2014).

What was measured:
ATP synthesis = assay: Cellular ATP synthesis in the presence of compounds; format: cell-based; conditions: compounds exposed to cells (FIG. 6)
Protocol: The following four compounds were exposed to cells, and ATP synthesis measured: […]

[1] = test system: mitochondrial F1F0-ATPase; conditions: cited from earlier work
[2] = target: T1, oligomycin sensitivity conferring protein (OSCP) component of the mitochondrial F1F0-ATPase (Homo sapiens, UniProt P48047); conditions: cited from earlier work
T1 sequence (P48047 24-213): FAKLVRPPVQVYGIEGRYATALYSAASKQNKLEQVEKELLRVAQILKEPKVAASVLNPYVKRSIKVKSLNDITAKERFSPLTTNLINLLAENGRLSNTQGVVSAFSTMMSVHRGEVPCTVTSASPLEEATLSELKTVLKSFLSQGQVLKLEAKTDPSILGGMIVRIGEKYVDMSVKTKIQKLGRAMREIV

animal models of lupus = conditions: in vivo; cited from earlier work

Row | Compound | inhibition of ATP synthesis (ATP synthesis) | inhibition of the F1F0-ATPase [1] | binding to OSCP [2] | activity in animal models of lupus (animal models of lupus)
1 | CN1C(=O)C(c2ccccc2)NC(c2ccc(O)cc2)c2cc(Cl)ccc21 (stereo not shown) | did inhibit ATP synthesis |  |  | 
2 | CN1C(=O)C(Cc2ccc3ccccc3c2)N=C(c2ccc(O)cc2)c2cc(Cl)ccc21 (stereo not shown) [Bz-423] |  | inhibits the enzyme | binds to the oligomycin sensitivity conferring protein (OSCP) | potent activity in animal models of lupus
